Where two headings read alike, the source gives them in different places.
What was measured:
[1] = tested on: B16F10 mouse melanoma cells; experiment: Tumor cells B16F10 cellular growth IFNγ-induced inhibition assay (CellTiter-Glo); format: cell-based; conditions: for IC50: B16-F10, 72 h
Procedure: B16F10 mouse melanoma cells (ATCC Cat #CRL-6475) were seeded at a density of 500 cells per well in a 384-well clear bottom plate (Corning Cat #3712, Corning, N.Y.) in 40 μL total volume of DMEM+10% FBS (PanEco Cat #C420, Russia and Sigma Cat #F4135, St. Louis, MO). Cells were allowed to adhere overnight at 37° C., 5% CO2. On the following day, 250× solutions of compounds in DMSO (Sigma Cat #D2650) were prepared into Cmpnds plate (Diamond Well Plate, Axigen, Cat #P-384-120SQ-C-S) (final concentration of 1×) and DMSO only controls were included. Dilution Plate (Diamond Well Plate (Axigen, Cat #P-384-120SQ-C-S) was prepared by adding 49 μL of culture medium per well: half of the plate with culture medium only, half with culture medium+IFNγ (5 ng/ml). A 1 μL aliquot of 250× compounds (Cmpnds plate) was added to 49 μL of culture medium (Dilution plate), then a 10 μL aliquot of the mixture was transferred to Reaction plate with 40 μL of cells followed by centrifugation at 240 g for 1 min. After 3 days of incubation, 10 μL of CellTiter-Glo (Promega) was added to the cells, plates were centrifuged at 240 g for 1 min, and luminescence signal was measured. For each compound, the percent growth inhibition at every compound dose level was calculated relative to the “DMSO/with IFNγ” control and used to determine the IC50.

GST-tagged PTPN2 protein = GST-tagged PTPN2 protein (Homo sapiens (Human), UniProt P17706); experiment: Primary assay of PTPN2 enzymatic activity inhibition (DiFMUP fluorescence); format: biochemical; conditions: PTPN2 0.004 ng/μL, DiFUMP substrate 2 μM, 60 min at rt
Procedure: Compound activity was determined using GST-tagged PTPN2 protein (Cat #31592, ActiveMotif) (SEQ ID NO: 1) in an in vitro enzymatic reaction. The enzymatic reaction was carried out in assay buffer (50 mM HEPES Na salt pH 7.2-7.4, 2 mM EDTA, 100 mM NaCl, 52 ng/μL BSA, and 6 mM DTT). The compounds were dispensed on a 384 well Diamond Well Plate (Axigen, Cat #P-384-120SQ-C-S) using the Biomek FX liquid handling system at 100× solutions of compounds in DMSO. 2×PTPN2 (final concentration 0.004 ng/μL) was prepared in 1× Assay buffer and 25 μL of mixture per well was added into Reaction plate (Optiplate, black, Perkin Elmer, Cat #6007270). Add 25 μL of 1× buffer to Ctrl- (Substrate w/o PTPN2) wells followed by centrifugation at 100 g for 1 min. Next step the Compounds were added to Reaction plate using Biomek station via following steps: 3 μl of 100× compounds (in DMSO) were mixed with 27 μL of Assay Buffer, then 5 μL of this mixture was added to Reaction plate with 25 μL of PTPN2 Mix. Plates were centrifuged for 1 min at 100 g and incubated for another 10 min at rt. Finally, 20 μL of 2.5× Substrate (DiFUMP, Invitrogen™ Cat #D6567) mix was added into appropriate wells of Reaction plate to the final concentration of 2 μM, plate was centrifuged at 100 g for 1 min followed by incubation at rt for 60 min, and the Fluorescence Intensity was measured using a Microplate Reader (ClarioStar Plus, excitation 360 nm, emission 450 nm). The % inhibition was then used to calculate the Ki values. The Ki values are shown in Table A, wherein “A” corresponds to Ki<1.0 nm, “B” corresponds to 1.0 nm≤Ki<5.0 nm, “C” corresponds to 5.0 nm≤Ki<10.0 nm, “D” corresponds to 10.0 nm≤Ki<50.0 nm, and “E” corresponds to 50.0 nm≤Ki<100.0 nm, and “F” corresponds to 100.0 nm≤Ki.

[2] = Pharmacokinetic (PK) study in mice, oral bioavailability; format: in vivo, Male CD-1 mice; conditions: 10 mg/kg PO vs 2 mg/kg IV, 10% Ethanol, 30% PEG-400, 60% Phosal-50PG
Procedure: Pharmacokinetic (PK) study in mice: Male CD-1 mice obtained from Charles River GmbH (Sulzfeld, Germany) with body weight ranging between 30 g to 40 g were used in the PK studies. Group of 12 mice were given a 2 mg/kg intravenous bolus (IV) dose of test article as a solution in 20% HP-beta-CD, and another group of 9 mice were given a 10 mg/kg oral (PO) dose of test article as a solution or suspension in [10% ethanol, 30% PEG-400 and 60% Phosal-50PG]. Blood samples (˜200 μL per time point) were collected twice from each animal—from orbital sinus and by cardiopuncture at 0.083, 0.25, 0.5, 1, 2, 4, 8 and 24 hours after IV administration, and at 0.5, 1, 2, 4, 8 and 24 hours after PO administration, 3 mice/time point. Blood samples were collected in tubes with Na-EDTA 0.5 M solution (1:10) and centrifuged for 10 min at 10,000 rpm at 2 to 8° C. to harvest plasma. Plasma samples were stored at −80° C. until LC/MS/MS analysis. Concentration in each plasma sample was determined by a non-validated LC/MS/MS. Data is acquired using multiple reaction monitoring (MRM) with specific transitions monitored for each compound. Pharmacokinetic Analysis: PK parameters were calculated by non-compartmental methods as described in Gibaldi and Perrier (Gibaldi and Perrier, 1982) using Phoenix® WinNonlin® version 6.3 (Certara L.P.). Following PO administration, percent bioavailability (Fabs) was determined by dividing the dose normalized mean area under the plasma concentration-time curve, extrapolated to the last time point (AUClast) obtained following PO dose by the mean dose normalized AUC of the animals dosed by IV injection. All PK parameters are presented as mean±standard deviation (SD). PK studies were conducted in mice for exemplary compounds of Formula (I). The percent bioavailability (Fabs) values determined are listed in Table C for certain compounds, together with the dosage, vehicle and form used in the studies.

[3] = B16F10, no IFNγ, 3 days of incubation, read-out: IC50 no IFNγ
[4] = B16F10, with IFNγ, 3 days of incubation, read-out: IC50 + IFNγ
[5] = B16-F10, B16F10, 100 μM compound, no IFNγ, read-out: % Growth Inhibition at 100 μM no IFNγ
[6] = B16-F10, B16F10, 100 μM compound, with IFNγ, read-out: % Growth Inhibition at 100 μM + IFNγ

GST-tagged PTPN2 protein, sequence (P17706 whole entry): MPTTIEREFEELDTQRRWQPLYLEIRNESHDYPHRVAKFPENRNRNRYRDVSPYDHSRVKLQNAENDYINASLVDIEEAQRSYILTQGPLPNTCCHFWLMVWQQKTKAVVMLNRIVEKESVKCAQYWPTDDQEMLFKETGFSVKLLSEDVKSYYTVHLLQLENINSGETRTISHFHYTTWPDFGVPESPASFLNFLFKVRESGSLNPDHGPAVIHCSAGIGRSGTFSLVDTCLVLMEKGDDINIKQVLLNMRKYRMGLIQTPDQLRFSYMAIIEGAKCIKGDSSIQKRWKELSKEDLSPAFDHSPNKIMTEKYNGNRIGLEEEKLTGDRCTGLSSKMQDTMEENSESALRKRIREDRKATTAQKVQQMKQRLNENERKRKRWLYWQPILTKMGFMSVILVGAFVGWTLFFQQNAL

| SMILES | IC50 [1, 3] [µM] | IC50 [1, 4] [µM] | inhibition at 100 µM [1, 5] [%] | inhibition at 100 µM [1, 6] [%] | Ki (GST-tagged PTPN2 protein) [µM] | Fabs, % ([2]; form Solution) [%] | IC50 ([1]; read-out: IC50 + IFNγ (μM)) [µM] | IC50 ([1]; read-out: IC50 no IFNγ (μM)) [µM] | inhibition at 100 µM ([1]; B16-F10, read-out: % Growth Inhibition at 100 μM + IFNγ) [%] | inhibition at 100 µM ([1]; B16-F10, read-out: % Growth Inhibition at 100 μM no IFNγ) [%] | Fabs, % ([2]; form Suspension) [%] |
| --- | --- | --- | --- | --- | --- | --- | --- | --- | --- | --- | --- |
| O=C1CN(c2c(O)cc(NC3=NCCCN3)cc2F)S(=O)(=O)N1 [Compound 2, 5-[2-fluoro-6-hydroxy-4-(1,4,5,6-tetrahydropyrimidin-2-ylamino)phenyl]-1,1-dioxo-1,2,5-thiadiazolidin-3-one] | > 100 | < 5 | 10 to 50 | 75 to 100 | 0.005 to 0.01 |  |  |  |  |  |  |
| CC1CCN=C(Nc2cc(O)c(N3CC(=O)NS3(=O)=O)c(F)c2)N1 (centres unmarked) [Compound 3, 5-[2-fluoro-6-hydroxy-4-[(6-methyl-1,4,5,6-tetrahydropyrimidin-2-yl)amino]phenyl]-1,1-dioxo-1,2,5-thiadiazolidin-3-one] | 10 to 50 | 5 to 10 | 10 to 50 | 50 to 75 | 0.01 to 0.05 | 12.5 |  |  |  |  |  |
| Cc1ccnc(Nc2cc(O)c(N3CC(=O)NS3(=O)=O)c(F)c2)n1 [Compound 4, 5-[2-fluoro-6-hydroxy-4-[(4-methylpyrimidin-2-yl)amino]phenyl]-1,1-dioxo-1,2,5-thiadiazolidin-3-one] |  |  |  |  | ≥ 0.1 |  | > 100 | > 100 | 10 to 50 | 10 to 50 |  |
| O=C1CN(c2c(O)cc(Nc3ncc(Cl)cn3)cc2F)S(=O)(=O)N1 [Compound 5, 5-[4-[(5-chloropyrimidin-2-yl)amino]-2-fluoro-6-hydroxy-phenyl]-1,1-dioxo-1,2,5-thiadiazolidin-3-one] | > 100 | > 100 | 10 to 50 | 10 to 50 | 0.05 to 0.1 |  |  |  |  |  |  |
| Cc1cnc(Nc2cc(O)c(N3CC(=O)NS3(=O)=O)c(F)c2)nc1O [Compound 6, 5-[2-fluoro-6-hydroxy-4-[(4-hydroxy-5-methyl-pyrimidin-2-yl)amino]phenyl]-1,1-dioxo-1,2,5-thiadiazolidin-3-one] | > 100 | 50 to 100 | < 10 | 50 to 75 | < 0.001 |  |  |  |  |  |  |
| O=C1CN(c2c(O)cc(Nc3nccc(O)n3)cc2F)S(=O)(=O)N1 [Compound 7, 5-[2-fluoro-6-hydroxy-4-[(4-hydroxypyrimidin-2-yl)amino]phenyl]-1,1-dioxo-1,2,5-thiadiazolidin-3-one] | > 100 | 5 to 10 | 10 to 50 | 75 to 100 | 0.001 to 0.005 |  |  |  |  |  | 6.1 |
| O=C1CN(c2c(O)cc(Nc3nc(O)c4ccccc4n3)cc2F)S(=O)(=O)N1 [Compound 8, 5-[2-fluoro-6-hydroxy-4-[(4-hydroxyquinazolin-2-yl)amino]phenyl]-1,1-dioxo-1,2,5-thiadiazolidin-3-one] | > 100 | 10 to 50 | 10 to 50 | 50 to 75 | < 0.001 |  |  |  |  |  |  |
| COc1cc(O)nc(Nc2cc(O)c(N3CC(=O)NS3(=O)=O)c(F)c2)n1 [Compound 9, 5-[2-fluoro-6-hydroxy-4-[(4-hydroxy-6-methoxy-pyrimidin-2-yl)amino]phenyl]-1,1-dioxo-1,2,5-thiadiazolidin-3-one] | > 100 | 5 to 10 | 10 to 50 | 75 to 100 | < 0.001 | 10.4 |  |  |  |  |  |
| CC(C)Cc1cnc(Nc2cc(O)c(N3CC(=O)NS3(=O)=O)c(F)c2)nc1O [Compound 12, 5-[2-fluoro-6-hydroxy-4-[(4-hydroxy-5-isobutyl-pyrimidin-2-yl)amino]phenyl]-1,1-dioxo-1,2,5-thiadiazolidin-3-one] | > 100 | 10 to 50 | 10 to 50 | 50 to 75 | < 0.001 |  |  |  |  |  |  |
| CC(C)Cc1c(O)nc(Nc2cc(O)c(N3CC(=O)NS3(=O)=O)c(F)c2)nc1O [Compound 13, 5-[4-[(4,6-dihydroxy-5-isobutyl-pyrimidin-2-yl)amino]-2-fluoro-6-hydroxy-phenyl]-1,1-dioxo-1,2,5-thiadiazolidin-3-one] | > 100 | 10 to 50 | 10 to 50 | 50 to 75 | 0.001 to 0.005 |  |  |  |  |  |  |
| CCCc1c(C)nc(Nc2cc(O)c(N3CC(=O)NS3(=O)=O)c(F)c2)nc1O [Compound 21, 5-[2-fluoro-6-hydroxy-4-[(4-hydroxy-6-methyl-5-propyl-pyrimidin-2-yl)amino]phenyl]-1,1-dioxo-1,2,5-thiadiazolidin-3-one] | > 100 | 10 to 50 | 10 to 50 | 50 to 75 | 0.001 to 0.005 |  |  |  |  |  |  |
| O=C1CN(c2c(O)cc(Nc3nc(O)c4c(n3)CCCC4)cc2F)S(=O)(=O)N1 [Compound 39, 5-[2-fluoro-6-hydroxy-4-[(4-hydroxy-5,6,7,8-tetrahydroquinazolin-2-yl)amino]phenyl]-1,1-dioxo-1,2,5-thiadiazolidin-3-one] | > 100 | 10 to 50 | 10 to 50 | 50 to 75 | < 0.001 |  |  |  |  |  |  |
| CC(C)Cc1c(O)nc(Nc2cc(O)c(N3CC(=O)NS3(=O)=O)c(F)c2)nc1Cl [Compound 42, 5-[4-[(4-chloro-6-hydroxy-5-isobutyl-pyrimidin-2-yl)amino]-2-fluoro-6-hydroxy-phenyl]-1,1-dioxo-1,2,5-thiadiazolidin-3-one] | > 100 | 10 to 50 | 10 to 50 | 75 to 100 | < 0.001 |  |  |  |  |  |  |

— patent publication US20250313554A1, “PTPN2 INHIBITORS” (Ness Therapeutics, Inc., priority 2022, published 2025)
